Assay results: ChEMBL document CHEMBL1201862, “PubChem BioAssay data set” (2004)
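The compound was tested at five concentrations on cells cultured in 96-well plates, with a 48-hour exposure period. GI50 marks 50% less growth.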 Activity calls are given as the source filed them. Cut-off read from the data, not from the text of the source: active = GI50 up to about 1.1 µM and inactive = higher.

What was measured:
Assay in all cases: inhibition of tumour cell growth, NCI panel, 48 h
SNB-19 = system: SNB-19
CCRF-CEM = system: CCRF-CEM
MDA-MB-435 = system: MDA-MB-435
SF-295 = system: SF-295
OVCAR-4 = system: OVCAR-4
OVCAR-8 = system: OVCAR-8
TK-10 = system: TK-10
NCI-H23 = system: NCI-H23
SK-MEL-5 = system: SK-MEL-5
SK-MEL-28 = system: SK-MEL-28
DU-145 = system: DU-145
SW-620 = system: SW-620
UO-31 = system: UO-31
COLO 205 = system: COLO 205
MDA-N = system: MDA-N
SF-268 = system: SF-268
NCI-H226 = system: NCI-H226
NCI/ADR-RES = system: NCI/ADR-RES
HCT-116 = system: HCT-116
UACC-257 = system: UACC-257
786-0 = system: 786-0
OVCAR-5 = system: OVCAR-5
M14 = system: M14
LOX IMVI = system: LOX IMVI
RPMI-8226 = system: RPMI-8226
A498 = system: A498
UACC-62 = system: UACC-62
MCF7 = system: MCF7
Hs-578T = system: Hs-578T
SK-MEL-2 = system: SK-MEL-2
A549 = system: A549
ACHN = system: ACHN
KM12 = system: KM12
HCT-15 = system: HCT-15
SR = system: SR
OVCAR-3 = system: OVCAR-3
PC-3 = system: PC-3
HT-29 = system: HT-29
Malme-3M = system: Malme-3M
MOLT-4 = system: MOLT-4
K562 = system: K562
SNB-75 = system: SNB-75
EKVX = system: EKVX
SN12C = system: SN12C
IGROV-1 = system: IGROV-1
MDA-MB-231 = system: MDA-MB-231
HOP-62 = system: HOP-62
U-251 = system: U-251
SK-OV-3 = system: SK-OV-3
T47D = system: T47D
CAKI-1 = system: CAKI-1
RXF 393 = system: RXF 393
HL-60 = system: HL-60
HCC 2998 = system: HCC 2998
HOP-92 = system: HOP-92
SF-539 = system: SF-539

CCOP(=O)(OCC)C1CC(O)C(=O)N1 (configuration not stated)
GI50 (SNB-19): > 100 µM (inactive)
GI50 (CCRF-CEM): > 100 µM (inactive)
GI50 (MDA-MB-435): > 100 µM (inactive)
GI50 (SF-295): > 100 µM (inactive)
GI50 (OVCAR-4): > 100 µM (inactive)
GI50 (OVCAR-8): > 100 µM (inactive)
GI50 (TK-10): > 100 µM (inactive)
GI50 (NCI-H23): > 100 µM (inactive)
GI50 (SK-MEL-5): > 100 µM (inactive)
GI50 (SK-MEL-28): > 100 µM (inactive)
GI50 (DU-145): > 100 µM (inactive)
GI50 (SW-620): > 100 µM (inactive)
GI50 (UO-31): > 100 µM (inactive)
GI50 (COLO 205): > 100 µM (inactive)
GI50 (MDA-N): > 100 µM (inactive)
GI50 (SF-268): > 100 µM (inactive)
GI50 (NCI-H226): > 100 µM (inactive)
GI50 (NCI/ADR-RES): > 100 µM (inactive)
GI50 (HCT-116): > 100 µM (inactive)
GI50 (UACC-257): > 100 µM (inactive)
GI50 (786-0): > 100 µM (inactive)
GI50 (OVCAR-5): > 100 µM (inactive)
GI50 (M14): > 100 µM (inactive)
GI50 (LOX IMVI): > 100 µM (inactive)
GI50 (RPMI-8226): > 100 µM (inactive)
GI50 (A498): > 100 µM (inactive)
GI50 (UACC-62): > 100 µM (inactive)
GI50 (MCF7): > 100 µM (inactive)
GI50 (Hs-578T): > 100 µM (inactive)
GI50 (SK-MEL-2): > 100 µM (inactive)
GI50 (A549): > 100 µM (inactive)
GI50 (ACHN): > 100 µM (inactive)
GI50 (KM12): > 100 µM (inactive)
GI50 (HCT-15): > 100 µM
GI50 (SR): > 100 µM (inactive)
GI50 (OVCAR-3): > 100 µM (inactive)
GI50 (PC-3): > 100 µM (inactive)
GI50 (HT-29): > 100 µM (inactive)
GI50 (Malme-3M): > 100 µM (inactive)
GI50 (MOLT-4): > 100 µM (inactive)
GI50 (K562): > 100 µM (inactive)
GI50 (SNB-75): > 100 µM (inactive)
GI50 (EKVX): > 100 µM (inactive)
GI50 (SN12C): > 100 µM (inactive)
GI50 (IGROV-1): > 100 µM (inactive)
GI50 (MDA-MB-231): > 100 µM (inactive)
GI50 (HOP-62): > 100 µM (inactive)
GI50 (U-251): > 100 µM (inactive)
GI50 (SK-OV-3): > 100 µM (inactive)

C/C(=C\CCC1=CC(=O)OC1)CC[C@@H]1[C@H]2C(=O)CC(C)[C@@]3(C)CC[C@]1(C)[C@@]23C (some centres not stated)
GI50 (T47D): > 10 µM (inactive)
GI50 (CCRF-CEM): > 10 µM (inactive)
GI50 (SF-295): > 10 µM (inactive)
GI50 (OVCAR-8): > 10 µM (inactive)
GI50 (TK-10): > 10 µM (inactive)
GI50 (NCI-H23): > 10 µM (inactive)
GI50 (SK-MEL-5): > 10 µM (inactive)
GI50 (CAKI-1): > 10 µM (inactive)
GI50 (SK-MEL-28): > 10 µM (inactive)
GI50 (DU-145): > 10 µM (inactive)
GI50 (SW-620): > 10 µM (inactive)
GI50 (COLO 205): > 10 µM (inactive)
GI50 (MDA-N): > 10 µM (inactive)
GI50 (SF-268): > 10 µM (inactive)
GI50 (UACC-257): > 10 µM (inactive)
GI50 (786-0): > 10 µM (inactive)
GI50 (M14): > 10 µM (inactive)
GI50 (LOX IMVI): > 10 µM (inactive)
GI50 (RPMI-8226): > 10 µM (inactive)
GI50 (UACC-62): > 10 µM (inactive)
GI50 (MCF7): > 10 µM (inactive)
GI50 (RXF 393): > 10 µM (inactive)
GI50 (A549): > 10 µM (inactive)
GI50 (KM12): > 10 µM (inactive)
GI50 (HL-60): > 10 µM (inactive)
GI50 (HCT-15): > 10 µM
GI50 (SR): > 10 µM (inactive)
GI50 (PC-3): > 10 µM (inactive)
GI50 (HT-29): > 10 µM (inactive)
GI50 (Malme-3M): > 10 µM (inactive)
GI50 (MOLT-4): > 10 µM (inactive)
GI50 (K562): > 10 µM (inactive)
GI50 (SNB-75): > 10 µM (inactive)
GI50 (EKVX): > 10 µM (inactive)
GI50 (SN12C): > 10 µM (inactive)
GI50 (IGROV-1): > 10 µM (inactive)
GI50 (MDA-MB-231): > 10 µM (inactive)
GI50 (HOP-62): > 10 µM (inactive)
GI50 (HCC 2998): > 10 µM (inactive)
GI50 (SK-OV-3): > 10 µM (inactive)

O=C(CCc1ccc(O)cc1)c1c(O)cc(O)cc1OC1OC(CO)C(O)C(O)C1O (configuration not stated)
GI50 (T47D): > 100 µM (inactive)
GI50 (MDA-MB-435): > 100 µM (inactive)
GI50 (SF-295): > 100 µM (inactive)
GI50 (OVCAR-4): > 100 µM (inactive)
GI50 (TK-10): > 100 µM (inactive)
GI50 (NCI-H23): > 100 µM (inactive)
GI50 (SK-MEL-5): > 100 µM (inactive)
GI50 (CAKI-1): > 100 µM (inactive)
GI50 (SK-MEL-28): > 100 µM (inactive)
GI50 (DU-145): > 100 µM (inactive)
GI50 (SW-620): > 100 µM (inactive)
GI50 (UO-31): > 100 µM (inactive)
GI50 (COLO 205): > 100 µM (inactive)
GI50 (MDA-N): > 100 µM (inactive)
GI50 (SF-268): > 100 µM (inactive)
GI50 (HOP-92): > 100 µM (inactive)
GI50 (NCI/ADR-RES): > 100 µM (inactive)
GI50 (HCT-116): > 100 µM (inactive)
GI50 (UACC-257): > 100 µM (inactive)
GI50 (786-0): > 100 µM (inactive)
GI50 (OVCAR-5): > 100 µM (inactive)
GI50 (M14): > 100 µM (inactive)
GI50 (LOX IMVI): > 100 µM (inactive)
GI50 (A498): > 100 µM (inactive)
GI50 (UACC-62): > 100 µM (inactive)
GI50 (Hs-578T): > 100 µM (inactive)
GI50 (SK-MEL-2): > 100 µM (inactive)
GI50 (A549): > 100 µM (inactive)
GI50 (ACHN): > 100 µM (inactive)
GI50 (KM12): > 100 µM (inactive)
GI50 (HCT-15): > 100 µM
GI50 (OVCAR-3): > 100 µM (inactive)
GI50 (PC-3): > 100 µM (inactive)
GI50 (HT-29): > 100 µM (inactive)
GI50 (Malme-3M): > 100 µM (inactive)
GI50 (K562): > 100 µM (inactive)
GI50 (SNB-75): > 100 µM (inactive)
GI50 (SF-539): > 100 µM (inactive)
GI50 (EKVX): > 100 µM (inactive)
GI50 (IGROV-1): > 100 µM (inactive)
GI50 (HOP-62): > 100 µM (inactive)
GI50 (HCC 2998): > 100 µM (inactive)
GI50 (SK-OV-3): > 100 µM (inactive)
